Test results from PMC6539495, “Anti-Cancer Activity of Novel Dihydrotestosterone-Derived Ring A-Condensed Pyrazoles on Androgen Non-Responsive Prostate Cancer Cell Lines” (International Journal of Molecular Sciences, 2019).
Like-named read-outs stand apart in the source and are kept apart here.

Key:
HeLa cells = experiment: MTT cell viability assay on HeLa cervical cancer cells; type: cell-based, human; details: 72 hours; for IC50: ± SD
MCF-7 cells = experiment: MTT cell viability assay on MCF-7 breast cancer cells; type: cell-based, human; details: for IC50: ± SD
MDA-MB-231 cells = experiment: MTT cell viability assay on MDA-MB-231 breast cancer cells; type: cell-based, human; details: for IC50: ± SD
MRC-5 cells [1] = experiment: MTT cell viability assay on non-cancerous MRC-5 fibroblasts; type: cell-based; details: for Mean values (%) of primary growth inhibitory screen (viability in %), MRC-5 / IC50: 72 hours, MTT; for IC50: ± SD
DU 145 cells [2] = experiment: MTT cell viability assay on DU 145 prostate cancer cells; type: cell-based, human; details: for IC50: ± SD
PC-3 cells [3] = experiment: MTT cell viability assay on PC-3 prostate cancer cells; type: cell-based, human; details: for Mean values (%) of primary growth inhibitory screen (viability in %), PC-3 / IC50: 72 hours, MTT; for antiproliferative potency against PC-3 prostate cancer cells compared to MRC-5 non-cancerous fibroblasts: primary screen; for IC50: ± SD
Bax mRNA in PC-3 cells = experiment: RT-qPCR of Bax mRNA; type: cell-based, human; details: PC-3, 48 h; 4e, 4j 5 µM; cisplatin 200 µM; GAPDH reference
Protocol: (§1) PC-3 cells were seeded at 2 × 10^6 cells/well density in 6 well plates. On the following day cells were treated with 5 µM of either compound 4e or 4j or with 200 µM of cisplatin. Cells were collected 48-hours post-treatment and total cellular RNA was isolated using RNeasy® Mini Kit (QIAGEN, Hilden, Germany) according to the manufacturer’s recommendation. RNA (2 µg) was reverse transcribed (TaqMan® Reverse Transcription kit, Applied Biosystems, Foster City, CA, USA) in 50 µL total volume. PCR reactions were performed on PicoReal™ Real-time PCR (Thermo Scientific, Walthan, MA, USA) using SYBRGreen qPCR Master Mix (Thermo Scientific) with an input of 1 µL cDNA. Each primer (Table 3) was used at 200 nM concentration. Relative transcript levels were determined by the ΔΔCt analysis using GAPDH as reference gene. Experiments were repeated three times with three biological replicates.

[4] = test system: caspase 3 mRNA in PC-3 cells; experiment: RT-qPCR of caspase 3 mRNA; type: cell-based, human; details: PC-3, 48 h; 4e, 4j 5 µM; cisplatin 200 µM; GAPDH reference
Protocol: as §1

PC-3 cells [5] = experiment: Annexin V/PI apoptosis detection assay (flow cytometry); type: cell-based, human; details: for percentage of annexin V-positive cells (Q2 + Q3): PC-3, 5 µM, 48-hour treatment
Protocol: PC-3 cells were seeded at 2 × 10^6 cells/well density in 6-well plates. On the following day cells were treated with 5 µM of either compound 4e or 4j or with 200 µM of cisplatin (Accord Healthcare Ltd., Middlesex, UK). After 48-hour treatment, cells were collected and a Dead Cell Apoptosis Kit containing AnnexinV-FITC and propidium iodide (Life Technologies-Hungary, Budapest, Hungary) was used according to the manufacturer’s recommendation. Fluorescence intensities of at least 10,000 cells/sample were measured by FACSCalibur™ (BD Biosciences, Franklin Lakes, CA, USA) and data were analyzed by FlowJo V10 software (BD Biosciences, Franklin Lakes, NJ, USA). Experiments were repeated three times using triplicates.

[6] = Solubility in DMSO for pharmacological studies; type: physicochemical; details: final concentration of 5 mM
Protocol: To perform pharmacological studies, the synthesized DHT derivatives were dissolved in DMSO (dimethyl sulfoxide) in a final concentration of 5 mM. One compound (5h) was non-soluble in the applied solvent, thus was excluded from the pharmacological evaluations. […] For this, PC-3 and DU 145 prostate cancer cells, MCF-7 and MDA-MB-231 breast cancer cells, HeLa cervical cancer cells and non-cancerous MRC-5 fibroblasts were used. […] On the heat map representing viability results following treatments with DHT derivatives at 30 µM concentration a remarkable structure–function relationship can be recognized (Figure 3).

MRC-5 cells [7] = test system: MRC-5 cells; set-up: method as in PMID 28595942; details: assessed previously; cited from earlier work
PC-3 cells [8] = test system: PC-3 cells; set-up: method as in PMID 28595942; details: assessed previously; cited from earlier work
DU 145 cells [9] = test system: DU 145 cells; set-up: method as in PMID 28595942; details: assessed previously; cited from earlier work

Structure (SMILES) | Mean values (%) of primary growth inhibitory screen (viability in %), HeLa (HeLa cells; 10 µM) [%] | Mean values (%) of primary growth inhibitory screen (viability in %), HeLa (HeLa cells; 30 µM) [%] | Mean values (%) of primary growth inhibitory screen (viability in %), MCF-7 (MCF-7 cells; 10 µM, 72 hours) [%] | Mean values (%) of primary growth inhibitory screen (viability in %), MCF-7 (MCF-7 cells; 30 µM, 72 hours) [%] | Mean values (%) of primary growth inhibitory screen (viability in %), MDA-MB-231 (MDA-MB-231 cells; 10 µM, 72 hours) [%] | Mean values (%) of primary growth inhibitory screen (viability in %), MDA-MB-231 (MDA-MB-231 cells; 30 µM, 72 hours) [%] | Mean values (%) of primary growth inhibitory screen (viability in %), MRC-5 (MRC-5 cells [1]; 10 µM) [%] | Mean values (%) of primary growth inhibitory screen (viability in %), MRC-5 (MRC-5 cells [1]; 30 µM) [%] | Mean values (%) of primary growth inhibitory screen (viability in %), DU 145 (DU 145 cells [2]; 10 µM, 72 hours) [%] | Mean values (%) of primary growth inhibitory screen (viability in %), DU 145 (DU 145 cells [2]; 30 µM, 72 hours) [%] | melting point [°C] | Mean values (%) of primary growth inhibitory screen (viability in %), PC-3 (PC-3 cells [3]; 10 µM) [%] | antiproliferative potency against PC-3 prostate cancer cells compared to MRC-5 non-cancerous fibroblasts (PC-3 cells [3]; 10 µM) | Mean values (%) of primary growth inhibitory screen (viability in %), PC-3 (PC-3 cells [3]; 30 µM) [%] | IC50 (HeLa cells) [µM] | IC50 (MCF-7 cells; 72 hours) [µM] | Bax mRNA expression level compared to untreated control (Bax mRNA in PC-3 cells) | caspase 3 mRNA expression level compared to untreated control [4] | IC50 (MDA-MB-231 cells; 72 hours) [µM] | IC50 (MRC-5 cells [1]) [µM] | also measured
Cc1c2c(nn1-c1ccccc1)CC1CCC3C4CCC(O)C4(C)CCC3C1(C)C2 (stereo not drawn) [4a, 17β-Hydroxy-1′-phenyl-5′-methylpyrazolo[3′,4′:3,2]-5α-androstane] | 49.6 | 46.7 | 57.1 | 5.5 | 75.0 | 32.1 | 68.3 | 1.2 | 67.3 | 1.5 | 241 to 245 | 36.8 | significantly higher | 3.2 |  |  |  |  |  |  | IC50 (HeLa cells; Homo sapiens, HeLa): 16.9 ± 3.7 µM; IC50 (MCF-7 cells; Homo sapiens, MCF7, 72 hours): 12.9 ± 0.1 µM; IC50 (MDA-MB-231 cells; Homo sapiens, MDA-MB-231, 72 hours): 15.3 ± 3.4 µM; IC50 (MRC-5 cells [1]; Homo sapiens, MRC5): 23.7 ± 2.3 µM; IC50 (DU 145 cells [2]; Homo sapiens, DU-145, 72 hours): 9.2 ± 1.2 µM; IC50 (PC-3 cells [3]; Homo sapiens, PC-3): 5.6 ± 1.2 µM
COc1ccc(-n2nc3c(c2C)C[C@@]2(C)[C@@H](CC[C@@H]4[C@@H]2CC[C@]2(C)[C@@H](O)CC[C@@H]42)C3)cc1 [4e, 17β-Hydroxy-1′-(4″-methoxyphenyl)-5′-methylpyrazolo[3′,4′:3,2]-5α-androstane] | 31.7 | 15.1 | 20.9 | 14.0 | 35.2 | 13.6 | 71.2 | 28.8 | 23.3 | 5.5 |  | 28.4 |  | 10.8 | 8.5 ± 0.6 | 5.5 ± 0.6 | significantly increased | significantly increased | 6.6 ± 0.9 | 8.6 ± 1.3 | specificity in cancer cell toxicity (cancer cell lines vs MRC-5) (MRC-5 cells [1]; primary screen, manifested already at 10 µM): utmost specificity; IC50 (DU 145 cells [2]; 72 hours): 3.6 ± 1.2 µM; percentage of annexin V-positive cells (Q2 + Q3) (PC-3 cells [5]): 33.96%; IC50 (PC-3 cells [3]): 4.2 ± 1.1 µM
Cc1c2c(nn1-c1ccc([N+](=O)[O-])cc1)CC1CCC3C4CCC(O)C4(C)CCC3C1(C)C2 (stereo not drawn) [4j, 17β-Hydroxy-1′-(4″-nitrophenyl)-5′-methylpyrazolo[3′,4′:3,2]-5α-androstane] | 60.5 | 64.6 | 55.8 | 49.6 | 83.8 | 80.6 | 99.1 | 99.8 | 82.8 | 60.4 |  | 38.2 | significantly higher | 41.6 | > 30 | 18.2 ± 3.9 | significantly increased | significantly increased | > 30 | > 30 | IC50 (DU 145 cells [2]; 72 hours): 19.7 ± 1 µM; percentage of annexin V-positive cells (Q2 + Q3) (PC-3 cells [5]): 37.89%; antiproliferative potency against PC-3 prostate cancer cells compared to MRC-5 non-cancerous fibroblasts (PC-3 cells [3]; 30 µM): significantly higher; IC50 (PC-3 cells [3]): 5.6 ± 1.1 µM
Cc1c2c(nn1-c1ccccc1)C[C@@H]1CC[C@@H]3[C@H](CC[C@]4(C)C(=O)CC[C@@H]34)[C@@]1(C)C2 [5a, 1′-Phenyl-5′-methylpyrazolo[3′,4′:3,2]-5α-androst-17-one] | 70.5 | 26.2 | 73.3 | 7.5 | 85.0 | 15.2 | 78.0 | 3.9 | 80.1 | 4.0 | 247 to 250 | 47.7 |  | 7.6 |  |  |  |  |  |  | 
Cc1c2c(nn1-c1ccc(Br)cc1)CC1CCC3C4CCC(=O)C4(C)CCC3C1(C)C2 (stereo not drawn) [5h, 1′-(4″-Bromophenyl)-5′-methylpyrazolo[3′,4′:3,2]-5α-androst-17-one] |  |  |  |  |  |  |  |  |  |  |  |  |  |  |  |  |  |  |  |  | solubility in the applied solvent (DMSO) [6]: non-soluble
N.N.[Cl][Pt][Cl] [cisplatin, reference compound] |  |  |  |  |  |  |  |  |  |  |  |  |  |  |  |  | significantly increased | significantly increased |  |  | IC50 (MRC-5 cells [7]): 237.3 ± 1.16 µM; IC50 (PC-3 cells [8]): 230.9 ± 1.37 µM; apoptosis induction (annexin V/PI), in words (PC-3 cells [5]; PC-3, 200 µM cisplatin, 48 h): prominent apoptosis; IC50 (DU 145 cells [9]): 126.8 ± 1.18 µM
